What follows are molecules tested against T1, α4β7 integrin interaction with MadCAM-1 (RPMI8866 cells) (Homo sapiens, UniProt P13612+P26010) (assay: α4β7 Integrin Cell Capture Assay). Conditions: capture of α4β7 integrin expressing RPMI8866 cells on recombinant MadCAM-1 extracellular domain-coated plate; 0.5 mM MnCl2.
T1 construct: α4β7 integrin expressing cells; endogenous in cells; host or cells: RPMI8866 cells
T1 sequence (P13612 34-1032): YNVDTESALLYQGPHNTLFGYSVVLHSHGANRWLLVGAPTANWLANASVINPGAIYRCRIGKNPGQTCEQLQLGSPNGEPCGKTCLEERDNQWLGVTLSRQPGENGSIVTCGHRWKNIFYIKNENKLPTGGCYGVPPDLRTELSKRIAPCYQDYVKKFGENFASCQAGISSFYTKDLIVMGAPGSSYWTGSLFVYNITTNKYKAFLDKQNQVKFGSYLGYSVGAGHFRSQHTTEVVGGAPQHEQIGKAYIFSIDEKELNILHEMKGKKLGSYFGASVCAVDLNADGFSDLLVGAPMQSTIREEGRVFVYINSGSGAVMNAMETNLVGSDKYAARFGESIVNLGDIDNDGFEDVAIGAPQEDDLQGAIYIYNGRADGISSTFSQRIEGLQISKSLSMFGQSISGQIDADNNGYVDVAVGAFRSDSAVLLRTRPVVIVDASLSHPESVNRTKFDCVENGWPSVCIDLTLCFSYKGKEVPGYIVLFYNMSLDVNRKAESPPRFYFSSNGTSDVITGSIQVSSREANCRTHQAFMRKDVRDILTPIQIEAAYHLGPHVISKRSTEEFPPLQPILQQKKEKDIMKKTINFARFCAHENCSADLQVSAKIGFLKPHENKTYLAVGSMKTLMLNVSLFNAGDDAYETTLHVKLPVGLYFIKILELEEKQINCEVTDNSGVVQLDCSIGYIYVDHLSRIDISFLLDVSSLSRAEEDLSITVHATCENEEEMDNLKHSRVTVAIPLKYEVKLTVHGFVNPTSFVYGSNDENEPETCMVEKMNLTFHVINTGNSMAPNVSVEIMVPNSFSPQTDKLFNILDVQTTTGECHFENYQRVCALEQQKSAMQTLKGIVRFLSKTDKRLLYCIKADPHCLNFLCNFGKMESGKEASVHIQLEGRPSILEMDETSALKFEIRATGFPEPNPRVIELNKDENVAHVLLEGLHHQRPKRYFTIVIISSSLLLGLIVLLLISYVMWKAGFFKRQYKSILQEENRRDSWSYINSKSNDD
T1 sequence (P26010 20-798): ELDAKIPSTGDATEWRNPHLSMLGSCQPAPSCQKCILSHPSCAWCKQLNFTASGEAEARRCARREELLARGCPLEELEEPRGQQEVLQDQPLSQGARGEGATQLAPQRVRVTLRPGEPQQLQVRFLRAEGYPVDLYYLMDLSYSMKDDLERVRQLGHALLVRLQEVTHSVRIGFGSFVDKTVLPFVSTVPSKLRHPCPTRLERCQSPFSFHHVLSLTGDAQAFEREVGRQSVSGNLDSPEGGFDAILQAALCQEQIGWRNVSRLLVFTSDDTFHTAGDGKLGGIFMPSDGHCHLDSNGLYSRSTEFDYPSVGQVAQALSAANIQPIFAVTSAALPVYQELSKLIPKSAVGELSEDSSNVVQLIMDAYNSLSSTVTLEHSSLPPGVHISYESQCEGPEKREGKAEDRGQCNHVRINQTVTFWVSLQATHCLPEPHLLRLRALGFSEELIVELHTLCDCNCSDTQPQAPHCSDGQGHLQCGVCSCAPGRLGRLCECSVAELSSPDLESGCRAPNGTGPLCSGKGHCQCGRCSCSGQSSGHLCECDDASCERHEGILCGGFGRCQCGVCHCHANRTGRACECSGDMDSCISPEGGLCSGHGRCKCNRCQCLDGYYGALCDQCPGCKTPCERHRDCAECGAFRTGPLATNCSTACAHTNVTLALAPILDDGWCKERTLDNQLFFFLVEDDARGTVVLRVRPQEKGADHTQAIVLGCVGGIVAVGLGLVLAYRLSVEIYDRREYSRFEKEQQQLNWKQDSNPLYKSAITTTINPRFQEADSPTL
Format: cell-based
Summary of the method: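 RPMI8866 cells (0.5×10^6 cells/mL in DMEM + 0.5% FBS + 0.5 mM MnCl2) preincubated with compound 1 h at 37 °C, then allowed to adhere 30 min at 37 °C to plates coated with MAdCAM-1 extracellular domain (1.0 μg/mL). Bound cells fixed with 2% glutaraldehyde, Hoechst-stained, imaged and counted; EC50 from cell count versus concentration.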
Work on `Cc1cccc(F)c1C(=O)N[C@@H](Cc1ccc(-c2nc(C)c(C)n(C)c2=O)c2c1OCCO2)C(=O)O` [Example 181] yielded an EC50 of 4.34 nM.
In the case of `Cc1cc(C)n(C)c(=O)c1-c1ccc(C[C@H](NC(=O)c2c(F)cc(N3CCOC[C@@H]3C(F)(F)F)cc2F)C(=O)O)c2c1OCCC2` [Example 161], the EC50 is reported as 0.364 nM.
`O=C(N[C@@H](Cc1ccc(-c2c(Cl)cc(F)cc2Cl)c2c1CCC2)C(=O)O)c1c(F)cccc1F` [Example 104, (S)-3-(7-(2,6-dichloro-4-fluorophenyl)-2,3-dihydro-1H-inden-4-yl)-2-(2,6-difluorobenzamido)propanoic acid] gave an EC50 of 88.7 nM.
For `Cn1ncc(C(F)(F)F)c(-c2ccc(C[C@H](NC(=O)c3c(F)cc(N4CCOC[C@@H]4C(F)(F)F)cc3F)C(=O)O)c3c2OCCC3)c1=O` [Example 132], the EC50 was 0.193 nM.
Molecule `Cc1cc(N2CCOC[C@@H]2C(F)(F)F)cc(F)c1C(=O)N[C@@H](Cc1ccc(-c2c(C)c(C(F)(F)F)cn(C)c2=O)c2c1CCCO2)C(=O)O` [Example 146] has an EC50 of 0.416 nM.
Work on `Cc1nc(-c2ccc(C[C@H](NC(=O)c3c(F)cc(N4CCOC[C@@H]4C(F)(F)F)cc3F)C(=O)O)c3c2OCCC3)c(=O)n(C)c1C` [Example 108, (S)-2-(2,6-difluoro-4-((R)-3-(trifluoromethyl)morpholino)benzamido)-3-(8-(4,5,6-trimethyl-3-oxo-3,4-dihydropyrazin-2-yl)chroman-5-yl)propanoic acid] yielded an EC50 of 0.26 nM.
For `Cc1cc(C(F)(F)F)c(-c2ccc(C[C@H](NC(=O)c3c(F)cc(N4CCOC[C@@H]4C(F)(F)F)cc3F)C(=O)O)c3c2OCCC3)c(=O)n1C` (single isomer, unassigned) [Example 39], the EC50 was 0.126 nM.
In the case of `Cc1cc(N2CCOC[C@@H]2C(F)(F)F)cc(F)c1C(=O)N[C@@H](Cc1ccc(-c2c(C)nc(C)n(C)c2=O)c2c1COC2)C(=O)O` [Example 183], the EC50 is reported as 0.106 nM.
`Cc1c(-c2ccc(C[C@H](NC(=O)c3c(F)cc(N4CCOC[C@@H]4C(F)(F)F)cc3F)C(=O)O)c3c2COC3)c(=O)n(C)c(=O)n1C` [Example 14, (S)-2-(2,6-difluoro-4-((R)-3-(trifluoromethyl)morpholino)benzamido)-3-(7-(1,3,6-trimethyl-2,4-dioxo-1,2,3,4-tetrahydropyrimidin-5-yl)-1,3-dihydroisobenzofuran-4-yl) propanoic acid] gave an EC50 of 0.38 nM.
`Cc1cc(N2CCOC[C@@H]2C(F)(F)F)cc(F)c1C(=O)N[C@@H](Cc1ccc(-c2c(C(F)(F)F)cc(C)n(C)c2=O)c2c1COC2)C(=O)O` [Example 188] was tested, and the EC50 was 0.227 nM.
`Cc1cn(C)c(=O)c(-c2ccc(C[C@H](NC(=O)c3c(C)cc(N4CCOC[C@@H]4C(F)(F)F)cc3F)C(=O)O)c3c2OCCC3)n1` [Example 163] showed an EC50 of 0.731 nM.
`Cc1c(C)c(C)n(C)c(=O)c1-c1ccc(C[C@H](NC(=O)c2c(F)cc(N3CCOC[C@@H]3C(F)(F)F)cc2F)C(=O)O)c2c1OCCC2` [Example 154] showed an EC50 of 0.358 nM.
With `Cc1nc(-c2ccc(C[C@H](NC(=O)c3c(F)cc(N4CCC(F)(F)C[C@@H]4C(F)(F)F)cc3F)C(=O)O)c3c2OCCC3)c(=O)n(C)c1C` [Example 144] the EC50 was 0.552 nM.
With `Cn1c2c(nc(-c3ccc(C[C@H](NC(=O)c4c(F)cc(N5CCOC[C@@H]5C(F)(F)F)cc4F)C(=O)O)c4c3OCCC4)c1=O)CCCC2` [Example 127] the EC50 was 0.455 nM.
Molecule `O=C(N[C@@H](Cc1ccc(-c2c(Cl)cc(F)cc2Cl)c2c1OCCO2)C(=O)O)c1c(Cl)cccc1Cl` [Example 5, (S)-3-(8-(2,6-dichloro-4-fluorophenyl)-2,3-dihydrobenzo[b][1,4]dioxin-5-yl)-2-(2,6-dichlorobenzamido)propanoic acid] has an EC50 of 55.4 nM.
For `Cc1c(C(F)(F)F)cn(C)c(=O)c1-c1ccc(C[C@H](NC(=O)c2c(F)cc(N3CCOC[C@@H]3C(F)(F)F)cc2F)C(=O)O)c2c1COC2` [Example 29, (S)-2-(2,6-difluoro-4-((R)-3-(trifluoromethyl)morpholino)benzamido)-3-(7-(1,4-dimethyl-2-oxo-5-(trifluoromethyl)-1,2-dihydropyridin-3-yl)-1,3-dihydroisobenzofuran-4-yl)propanoic acid], the EC50 was 0.817 nM.
Molecule `Cc1cc(C(F)(F)F)c(-c2ccc(C[C@H](NC(=O)c3c(F)cc(N[C@H](C)C(F)(F)F)cc3F)C(=O)O)c3c2OCCC3)c(=O)n1C` (single isomer, unassigned) [Example 41] has an EC50 of 0.594 nM.
`O=C(N[C@@H](Cc1ccc(-c2c(Cl)cc(F)cc2Cl)c2c1OCCO2)C(=O)O)c1c(F)cccc1OC(F)F` [Example 6, (S)-3-(8-(2,6-dichloro-4-fluorophenyl)-2,3-dihydrobenzo[b][1,4]dioxin-5-yl)-2-(2-(difluoromethoxy)-6-fluorobenzamido)propanoic acid] showed an EC50 of 444 nM.
`Cn1nc(-c2ccc(C[C@H](NC(=O)c3c(Cl)cccc3Cl)C(=O)O)c3c2OCCC3)c2ccccc21` [Example 69, (S)-2-(2,6-dichlorobenzamido)-3-(8-(1-methyl-1H-indazol-3-yl)chroman-5-yl)propanoic acid] was tested, and the EC50 was 158 nM.
`Cc1cc(C)n(C)c(=O)c1-c1ccc(C[C@H](NC(=O)c2c(F)cc(N[C@H](C)C(F)(F)F)cc2F)C(=O)O)c2c1OCCC2` [Example 53, (S)-2-(2,6-difluoro-4-(((R)-1,1,1-trifluoropropan-2-yl)amino)benzamido)-3-(8-(1,4,6-trimethyl-2-oxo-1,2-dihydropyridin-3-yl)chroman-5-yl)propanoic acid] showed an EC50 of 3.28 nM.
Work on `Cc1c(-c2ccc(C[C@H](NC(=O)c3c(F)cccc3F)C(=O)O)c3c2CCOC3)c(=O)n(C)c2ccc(F)cc12` (single isomer, unassigned) [Example 37] yielded an EC50 of 1.6 nM.
